Values quoted from earlier work, collected in patent US6251620A, “Three dimensional structure of a ZAP tyrosine protein kinase fragment and modeling methods” (priority 1997, dated 2001).
Non-standard residues stand in square brackets, D forms with d. pY = N[C@@H](Cc1ccc(OP(=O)(O)O)cc1)C(=O)O; Nle = CCCC[C@H](N)C(=O)O

Experiments:
MRL/Ipr-mice = settings: SLE
BDF1 mice = BDF1 mice given DBA/2 spleen:lymph node cells; usable as positive controls
ZAP-NC = settings: in vitro binding of ZAP-NC with synthetic phosphopeptides (ref. 25)

Molecule | activity in CGVHD model (BDF1 mice) | binding hierarchy (ZAP-NC) | also measured
Cc1oncc1C(=O)Nc1ccc(C(F)(F)F)cc1 [leflunomide] | active in this model |  | effect on course of disease (MRL/Ipr-mice): can prevent and reverse the course of disease
O=P1(N(CCCl)CCCl)NCCCO1 (centres unmarked) [cyclophosphamide] | active in this model |  | effect on course of disease (MRL/Ipr-mice): can prevent and reverse the course of disease
Ac.Asn.Gln.Leu.pTyr.Asn.Glu.Leu.Asn.Leu.Gly.Arg.Arg.Glu.Glu.pTyr.Asp.Val.Leu.Asp.NH2 [Ligand 5] |  | .zeta.1 =.zeta.2 >ε=.zeta.3 | 
C[C@]12C=CC(=O)C=C1CC[C@@H]1[C@@H]2[C@@H](O)C[C@@]2(C)[C@H]1CC[C@]2(O)C(=O)CO [prednisolone] | active in this model |  | 
Ac.Gly.Leu.pTyr.Asn.Glu.Leu.Gln.Lys.Asp.Lys.Nle.Ala.Glu.Ala.pTyr.Ser.Glu.Ile.Gly.NH2 (Ac-GL[pY]NELQKDK[Nle]AEA[pY]SEIG-NH2; SMILES CCCC[C@H](NC(=O)[C@H](CCCCN)NC(=O)[C@H](CC(=O)O)NC(=O)[C@H](CCCCN)NC(=O)[C@H](CCC(N)=O)NC(=O)[C@H](CC(C)C)NC(=O)[C@H](CCC(=O)O)NC(=O)[C@H](CC(N)=O)NC(=O)[C@H](Cc1ccc(OP(=O)(O)O)cc1)NC(=O)[C@H](CC(C)C)NC(=O)CNC(C)=O)C(=O)N[C@@H](C)C(=O)N[C@@H](CCC(=O)O)C(=O)N[C@@H](C)C(=O)N[C@@H](Cc1ccc(OP(=O)(O)O)cc1)C(=O)N[C@@H](CO)C(=O)N[C@@H](CCC(=O)O)C(=O)N[C@H](C(=O)NCC(N)=O)[C@@H](C)CC) [Ligand 6] |  | .zeta.1 =.zeta.2 >ε=.zeta.3 | 
Ac.Asp.Gly.Leu.pTyr.Gln.Gly.Leu.Ser.Thr.Ala.Thr.Lys.Asp.Thr.pTyr.Asp.Ala.Leu.His.NH2 (Ac-DGL[pY]QGLSTATKDT[pY]DALH-NH2; SMILES CC(=O)N[C@@H](CC(=O)O)C(=O)NCC(=O)N[C@@H](CC(C)C)C(=O)N[C@@H](Cc1ccc(OP(=O)(O)O)cc1)C(=O)N[C@@H](CCC(N)=O)C(=O)NCC(=O)N[C@@H](CC(C)C)C(=O)N[C@@H](CO)C(=O)N[C@H](C(=O)N[C@@H](C)C(=O)N[C@H](C(=O)N[C@@H](CCCCN)C(=O)N[C@@H](CC(=O)O)C(=O)N[C@H](C(=O)N[C@@H](Cc1ccc(OP(=O)(O)O)cc1)C(=O)N[C@@H](CC(=O)O)C(=O)N[C@@H](C)C(=O)N[C@@H](CC(C)C)C(=O)N[C@@H](Cc1c[nH]cn1)C(N)=O)[C@@H](C)O)[C@@H](C)O)[C@@H](C)O) [Ligand 7] |  | .zeta.1 =.zeta.2 >ε=.zeta.3 | 
C=CC[C@@H]1/C=C(\C)C[C@H](C)C[C@H](OC)[C@H]2O[C@@](O)(C(=O)C(=O)N3CCCC[C@H]3C(=O)O[C@H](/C(C)=C/[C@@H]3CC[C@@H](O)[C@H](OC)C3)[C@H](C)[C@@H](O)CC1=O)[C@H](C)C[C@@H]2OC [FK506] | active in this model |  | side effects (kidney and central nervous system): serious side effects in the kidney and central nervous system; kidney toxicity (patients receiving FK506, in some cases kidney transplant required after the liver transplant): severe kidney toxicity has been observed
